Data from US9115083B2 (Simpson Biotech Co., Ltd, priority 2011, dated 2015).

Each molecule was assayed against HCV NS3/4A protease (Hepatitis C virus genotype 1a (isolate H77) (HCV), UniProt P27958) (assay: HCV protease assay (fluorimetric, FRET substrate)). Conditions: HCV NS3/4A protease, 30 min at 37° C., triplicate; read-out: IC50 against HCV protease.
Type: biochemical
Description: The HCV protease assay herein was applied to investigate the HCV-protease inhibitory activity of the prepared compounds as described above. The method of the HCV protease assay was described in D. T. Phuong, C. M. Ma, M. Hattori and J. S. Jin: Inhibitory Effects of Antrodins A-E from Antrodia cinnamomea and Their Metabolites on Hepatitis C Virus Protease. Phytotherapy Research, 23, 582-584, 2009. Two micro liters of a compound solution (using DMSO as solvent) was placed in 384 well micro plate, then 8 μl of HCV NS3/4A protease ([…]) was added to the well containing a sample and the plate was agitated. Finally, 10 μL of freshly prepared substrate (Ac-Asp-Glu-Dap(QXL™520)-Glu-Glu-Abu-COO-Ala-Ser-Cys(5-FAMsp)-NH2) (100× dilution of a DMSO stock solution) was added with sequential rotational shaking. The reaction mixture was incubated for 30 min at 37° C. The fluorimetric analyses were performed on an automated TECAN GENios plate reader with excitation wavelength at 485 nm and emission 530 nm. Each test compound was carried out in triplicate. The HCV—PR inhibition (%) was calculated by using the following equation: % inhibition=(Fvehicle control−[…])×100/Fvehicle control (Where F is the fluorescence value of vehicle control or of sample minus the fluorescence of the substrate control).

Sequence of HCV NS3/4A protease (P27958 1027-1657): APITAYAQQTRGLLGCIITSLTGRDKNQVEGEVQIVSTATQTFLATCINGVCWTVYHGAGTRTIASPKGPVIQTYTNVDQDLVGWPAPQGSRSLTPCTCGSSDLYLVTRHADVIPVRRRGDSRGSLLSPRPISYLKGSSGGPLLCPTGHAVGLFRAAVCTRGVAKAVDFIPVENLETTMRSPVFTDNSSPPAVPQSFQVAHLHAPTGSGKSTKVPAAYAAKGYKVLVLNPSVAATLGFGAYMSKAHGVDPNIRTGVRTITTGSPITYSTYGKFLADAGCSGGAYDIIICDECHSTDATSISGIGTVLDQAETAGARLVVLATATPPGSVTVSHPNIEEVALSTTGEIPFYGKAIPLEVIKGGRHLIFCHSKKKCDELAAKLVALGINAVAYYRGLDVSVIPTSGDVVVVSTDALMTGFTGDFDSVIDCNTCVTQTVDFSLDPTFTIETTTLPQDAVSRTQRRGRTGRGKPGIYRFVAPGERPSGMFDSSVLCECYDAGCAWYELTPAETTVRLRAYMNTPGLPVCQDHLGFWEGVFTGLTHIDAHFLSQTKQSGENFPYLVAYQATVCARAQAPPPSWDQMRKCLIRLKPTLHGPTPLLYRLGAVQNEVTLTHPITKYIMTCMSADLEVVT
Sequence of HCV NS3/4A protease (P27958 1658-1711 partner): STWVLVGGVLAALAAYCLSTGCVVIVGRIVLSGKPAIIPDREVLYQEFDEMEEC

Row | Structure (SMILES) | IC50
1 | CC(C)CC1C(=O)N(C(CO)C(=O)N[C@@H](Cc2ccccc2)C(=O)O)C(=O)C1c1ccc(O)cc1 (stereo partly drawn) [Compound A3-16] | 132 µM
2 | CC(C)CC1C(=O)N(C(CC(C)C)C(=O)N[C@@H](C)C(=O)O)C(=O)C1c1ccc(O)cc1 (stereo partly drawn) [Compound A1-10] | 16 µM
3 | CC(C)=CCOc1ccc(C2=C(CC(C)C)C(=O)N(C(C(=O)C(N)=O)c3ccccc3)C2=O)cc1 (stereo not drawn) [KCnh-1] | 1.95 µM
4 | CC(C)=CCOc1ccc(C2=C(CC(C)C)C(=O)N(CC(O)C(=O)O)C2=O)cc1 (stereo not drawn) [KA, 2-Hydroxy-3-(3-isobutyl-4-(4-(3-methylbut-2-enyloxy)phenyl)-2,5-dioxo-2,5-dihydro-1H-pyrrol-1-yl)propanoic acid] | 8.7 µM
5 | CC(C)=CCOc1ccc(C2=C(CC(C)C)C(=O)N(C(C(=O)O)C(C)O)C2=O)cc1 (stereo not drawn) [Compound A6, 3-Hydroxy-2-(3-isobutyl-4-(4-(3-methylbut-2-enyloxy)phenyl)-2,5-dioxo-2,5-dihydro-1H-pyrrol-1-yl)butanoic acid] | 18 µM
6 | CC(C)CC1C(=O)N(C(Cc2ccccc2)C(=O)N[C@@H](Cc2ccccc2)C(=O)O)C(=O)C1c1ccc(O)cc1 (stereo partly drawn) [Compound A2-12] | 192 µM
7 | COC(=O)C(CO)NC(=O)C(CC(C)C)N1C(=O)C(CC(C)C)=C(c2ccc(OCC=C(C)C)cc2)C1=O (stereo not drawn) [Compound A1-3, Methyl 3-hydroxy-2-(2-(3-isobutyl-4-(4-(3-methylbut-2-enyloxy)-phenyl)-2,5-dioxo-2,5-dihydro-1H-pyrrol-1-yl)-4-methylpentanamido)-propanoate] | > 100 µM
8 | COC(=O)C1CCCN1C(=O)C(CC(C)C)N1C(=O)C(CC(C)C)=C(c2ccc(OCC=C(C)C)cc2)C1=O (stereo not drawn) [Compound A1-4] | > 100 µM
9 | CC(C)CC1C(=O)N(C(C)C(=O)O)C(=O)C1c1ccc(O)cc1 (stereo not drawn) [Compound A16] | 170 µM
10 | CC(C)=CCOc1ccc(C2=C(CC(C)C)C(=O)N(C(CCC(=O)O)C(=O)O)C2=O)cc1 (stereo not drawn) [Compound A9, 2-(3-Isobutyl-4-(4-(3-methylbut-2-enyloxy)phenyl)-2,5-dioxo-2,5-dihydro-1H-pyrrol-1-yl)pentanedioic acid] | 19 µM
11 | CC(C)=CCOc1ccc(C2=C(CC(C)C)C(=O)N(CC(=O)C(N)=O)C2=O)cc1 [KAnh-1] | 153 µM
12 | CC(C)CC1C(=O)N(CC(=O)C(N)=O)C(=O)C1c1ccc(O)cc1 (stereo not drawn) [KAnh-2] | 146 µM
13 | CC(C)CC1C(=O)N(CC(=O)C(=O)NC(C)C(=O)O)C(=O)C1c1ccc(O)cc1 (stereo not drawn) [KA-5] | 70 µM
14 | COC(=O)[C@H](CC(C)C)NC(=O)C(Cc1ccccc1)N1C(=O)C(CC(C)C)=C(c2ccc(OCC=C(C)C)cc2)C1=O (stereo partly drawn) [Compound A2-1, Methyl 2-(2-(3-isobutyl-4-(4-(3-methylbut-2-enyloxy)phenyl)-2,5-dioxo-2,5-dihydro-1H-pyrrol-1-yl)-3-phenylpropanamido)-4-methylpentanoate] | > 100 µM
15 | CC(C)CC1C(=O)N(C(CCOCO)C(=O)O)C(=O)C1c1ccc(O)cc1 (stereo not drawn) [Compound A17] | 105 µM
16 | CC(C)CC1C(=O)N(C(C(=O)C(N)=O)c2ccccc2)C(=O)C1c1ccc(O)cc1 (stereo not drawn) [KCnh-2] | 1.4 µM
17 | CSCCC(C(=O)O)N1C(=O)C(CC(C)C)=C(c2ccc(OCC=C(C)C)cc2)C1=O (stereo not drawn) [Compound A5, 2-(3-Isobutyl-4-(4-(3-methylbut-2-enyloxy)phenyl)-2,5-dioxo-2,5-dihydro-1H-pyrrol-1-yl)-4-(methylthio)butanoic acid] | 21 µM
18 | CC(C)=CCOc1ccc(C2=C(CC(C)C)C(=O)N(C(C)C(=O)O)C2=O)cc1 (stereo not drawn) [Compound A8, 2-(3-Isobutyl-4-(4-(3-methylbut-2-enyloxy)phenyl)-2,5-dioxo-2,5-dihydro-1H-pyrrol-1-yl)propanoic acid] | 27 µM
19 | CC(C)CC1C(=O)N(C(Cc2ccccc2)C(=O)O)C(=O)C1c1ccc(O)cc1 (stereo not drawn) [Compound A11] | 63 µM
20 | CCOC(=O)[C@H](Cc1ccc(O)cc1)NC(=O)C(Cc1ccccc1)N1C(=O)C(CC(C)C)=C(c2ccc(OCC=C(C)C)cc2)C1=O (stereo partly drawn) [Compound A2-3, Ethyl 3-(4-hydroxyphenyl)-2-(2-(3-isobutyl-4-(4-(3-methylbut-2-enyloxy)phenyl)-2,5-dioxo-2,5-dihydro-1H-pyrrol-1-yl)-3-phenylpropanamido)propanoate] | 100 µM
21 | CC(C)=CCOc1ccc(C2=C(CC(C)C)C(=O)N(CCC(O)C(=O)O)C2=O)cc1 (stereo not drawn) [KB, 2-Hydroxy-4-(3-isobutyl-4-(4-(3-methylbut-2-enyloxy)phenyl)-2,5-dioxo-2,5-dihydro-1H-pyrrol-1-yl)butanoic acid] | 15.6 µM

Row | Structure (SMILES) | IC50
22 | CC(C)CC1C(=O)C(C(c2ccccc2)C(O)C(=O)O)C(=O)C1c1ccc(O)cc1 (stereo not drawn) [KC-t] | 73 µM
23 | CCOC(=O)C(Cc1ccccc1)NC(=O)C(Cc1ccccc1)N1C(=O)C(CC(C)C)=C(c2ccc(OCC=C(C)C)cc2)C1=O (stereo not drawn) [Compound A2-2, Ethyl 2-(2-(3-isobutyl-4-(4-(3-methylbut-2-enyloxy)phenyl)-2,5-dioxo-2,5-dihydro-1H-pyrrol-1-yl)-3-phenylpropanamido)-3-phenylpropanoate] | 100 µM
24 | CC(C)CC1C(=O)N(CCC(=O)C(N)=O)C(=O)C1c1ccc(O)cc1 (stereo not drawn) [KBnh-2] | 7.4 µM
25 | CC(C)CC1C(=O)N(CC(C(=O)C(=O)NC(C)C(=O)O)c2ccccc2)C(=O)C1c1ccc(O)cc1 (stereo not drawn) [KC-4] | 14.6 µM
26 | CC(C)CC1C(=O)N(C(Cc2ccccc2)C(=O)N[C@@H](CC(C)C)C(=O)O)C(=O)C1c1ccc(O)cc1 (stereo partly drawn) [Compound A2-11] | 120 µM
27 | CC(C)=CCOc1ccc(C2=C(CC(C)C)C(=O)N(CCC(=O)C(=O)NC3CC3)C2=O)cc1 [KB-1, N-Cyclopropyl-4-(3-isobutyl-4-(4-(3-methylbut-2-enyloxy)phenyl)-2,5-dioxo-2,5-dihydro-1H-pyrrol-1-yl)-2-oxobutanamide] | 61.9 µM
28 | CC(C)CC1C(=O)N(C(CC(C)C)C(=O)N[C@@H](Cc2ccccc2)C(=O)O)C(=O)C1c1ccc(O)cc1 (stereo partly drawn) [Compound A1-7] | 27 µM
29 | CC(C)=CCOc1ccc(C2=C(CC(C)C)C(=O)N(CCC(=O)C(=O)NC(Cc3ccccc3)C(=O)OC(C)(C)C)C2=O)cc1 (stereo not drawn) [KB-2-2] | 16.2 µM
30 | CC(C)=CCOc1ccc(C2=C(CC(C)C)C(=O)N(C(C(=O)C(=O)NC(Cc3ccccc3)C(=O)OC(C)(C)C)c3ccccc3)C2=O)cc1 (stereo not drawn) [KC-5-2] | 51.6 µM
31 | CC(C)=CCOc1ccc(C2=C(CC(C)C)C(=O)N(CC(=O)C(=O)NC(C)C(=O)OC(C)(C)C)C2=O)cc1 (stereo not drawn) [KA-5-2] | 47.6 µM
32 | CCOC(=O)C(Cc1ccc(O)cc1)NC(=O)C(CC(C)C)N1C(=O)C(CC(C)C)=C(c2ccc(OCC=C(C)C)cc2)C1=O (stereo not drawn) [Compound A1-2, Ethyl 3-(4-hydroxyphenyl)-2-(2-(3-isobutyl-4-(4-(3-methylbut-2-enyloxy)phenyl)-2,5-dioxo-2,5-dihydro-1H-1-yl)-4-methylpentanamido)propanoate] | > 100 µM
33 | COC(=O)C(NC(=O)C(CC(C)C)N1C(=O)C(CC(C)C)=C(c2ccc(OCC=C(C)C)cc2)C1=O)C(C)C (stereo not drawn) [Compound A1-1, Methyl 2-(2-(3-isobutyl-4-(4-(3-methylbut-2-enyloxy)phenyl)-2,5-dioxo-2,5-dihydro-1H-pyrrol-1-yl)-4-methylpentanamido)-3-methyl-butanoate] | > 100 µM
34 | CC(C)CC1C(=O)N(C(CO)C(=O)O)C(=O)C1c1ccc(O)cc1 (stereo not drawn) [Compound A12] | 25 µM
35 | CC(C)=CCOc1ccc(C2=C(CC(C)C)C(=O)N(C(c3ccccc3)C(O)C(=O)O)C2=O)cc1 (stereo not drawn) [KC, 2-Hydroxy-3-(3-isobutyl-4-(4-(3-methylbut-2-enyloxy)phenyl)-2,5-dioxo-2,5-dihydro-1H-pyrrol-1-yl)-3-phenylpropanoic acid] | 5 µM
36 | CC(C)CC1C(=O)N(CC(C(=O)C(=O)NC(Cc2ccccc2)C(=O)O)c2ccccc2)C(=O)C1c1ccc(O)cc1 (stereo not drawn) [KC-5] | 9 µM
37 | CC(C)=CCOc1ccc(C2=C(CC(C)C)C(=O)N(C(Cc3ccc(O)cc3)C(=O)O)C2=O)cc1 (stereo not drawn) [Compound A4, 3-(4-Hydroxyphenyl)-2-(3-isobutyl-4-(4-(3-methylbut-2-enyloxy)-phenyl)-2,5-dioxo-2,5-dihydro-1H-pyrrol-1-yl)propanoic acid] | 16 µM
38 | CC(C)=CCOc1ccc(C2=C(CC(C)C)C(=O)N(C(C(=O)O)C(C)C)C2=O)cc1 (stereo not drawn) [Compound A7, 2-(3-Isobutyl-4-(4-(3-methylbut-2-enyloxy)phenyl)-2,5-dioxo-2,5-dihydro-1H-pyrrol-1-yl)-3-methylbutanoic acid] | 23.3 µM
39 | CC(C)=CCOc1ccc(C2=C(CC(C)C)C(=O)N(C(C(=O)C(=O)NC(C)C(=O)OC(C)(C)C)c3ccccc3)C2=O)cc1 (stereo not drawn) [KC-4-2] | 18.3 µM
40 | CC(C)=CCOc1ccc(C2=C(CC(C)C)C(=O)N(CCC(=O)C(=O)NC(C)C(=O)OC(C)(C)C)C2=O)cc1 (stereo not drawn) [KB-1-2] | 35.2 µM
41 | CC(C)CC1C(=O)N(CCC(=O)C(=O)NC(Cc2ccccc2)C(=O)O)C(=O)C1c1ccc(O)cc1 (stereo not drawn) [KB-2] | 100 µM
42 | CCOC(=O)[C@H](C)NC(=O)C(=O)C(c1ccccc1)N1C(=O)C(CC(C)C)=C(c2ccc(OCC=C(C)C)cc2)C1=O (stereo partly drawn) [KC-2, Ethyl 2-(3-(3-isobutyl-4-(4-(3-methylbut-2-enyloxy)phenyl)-2,5-dioxo-2,5-dihydro-1H-pyrrol-1-yl)-2-oxo-3-phenylpropanamido)propanoate] | > 100 µM
